Laboratory results as given in patent US20180094139A1 (priority 2014, published 2018).

Assays:
[1] = tested on: penicillinase isolated from Bacillus cereus (Pen); details: probe 10 μM, 3 h incubation with diluted Pen
Procedure: Data were collected in a 384-well plate with a total volume of 25 μL in each well. Fluorescence was measured with excitation at 490 nm and emission at 535 nm. Relative fluorescence represents the difference in fluorescence intensity with and without β-lactamase incubation. […] Error bars are ±SD.

[2] = tested on: K. pneumoniae with Class A carbapenemase KPC; assay type: cell-based; details: 10^5 c.f.u., probe 10 μM, 3 h incubation
[3] = tested on: E. cloacae with AmpC β-lactamase; assay type: cell-based; details: 10^5 c.f.u., probe 10 μM, 3 h incubation
[4] = tested on: β-lactamase-expressing bacteria; assay type: cell-based
[5] = Stability of fluorogenic probes in MES buffer (spontaneous hydrolysis); assay type: physicochemical; details: 0.1 M, pH 6.6, room temperature (22° C.)
BlaC = BlaC (Mycobacterium tuberculosis, UniProt P9WKD3); assay type: biochemical
Chain of BlaC (P9WKD3 35-307 limits assumed): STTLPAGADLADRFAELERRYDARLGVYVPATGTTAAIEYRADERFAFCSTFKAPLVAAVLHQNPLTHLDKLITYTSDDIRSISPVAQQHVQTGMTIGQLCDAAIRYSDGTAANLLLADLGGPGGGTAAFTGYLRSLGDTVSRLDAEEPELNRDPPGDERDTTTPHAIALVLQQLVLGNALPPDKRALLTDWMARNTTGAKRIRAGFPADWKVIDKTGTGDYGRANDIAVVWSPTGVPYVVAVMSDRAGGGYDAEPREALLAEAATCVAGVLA

SMILES	activity towards penicillinase (Pen) [1]	fluorescent intensity ratio IKPC/IBlaC [2]	fluorescent intensity ratio of AmpC to BlaC (IAmpC/IBlaC) [3]	fluorescence signal with β-lactamase-expressing bacteria (specificity) [4]	spontaneous hydrolysis rate [5]	catalytic efficiency (kcat/Km) for BlaC over TEM-1 Bla (BlaC)
COc1ccc(-c2c3ccc(=O)cc-3oc3cc(OCc4ccc(OCC5=C(C(=O)O)N6C(=O)[C@](NC(=O)Cc7ccccc7)(OC)[C@H]6SC5)cc4)ccc23)c(C)c1 [CDG-OMe]	some activity	1/4	1/9	much better selectivity for BlaC over other β-lactamase expressing bacteria	1.9e-07 s⁻¹	8,900 fold
O=C(Cc1ccccc1)N[C@@H]1C(=O)N2C(C(=O)O)=C(COc3ccc4ccc(=O)oc4c3)C3(CC3)S[C@H]12 [CDC-Cp, (6R,7R)-3-(((2-oxo-2H-chromen-7-yl)oxy)methyl)-7-(2-phenylacetamido)-2-azaspiro[2,1′-cyclopropane]-3-cephem-2-carboxylic acid]	–	–	–	–	–	around 10 fold
CO[C@@]1(NC(=O)Cc2ccccc2)C(=O)N2C(C(=O)O)=C(COc3ccc4ccc(=O)oc4c3)C3(CC3)S[C@@H]21 [CDC-OMe-Cp, (6R,7S)-7-methoxy-3-(((2-oxo-2H-chromen-7-yl)oxy)methyl)-7-(2-phenylacetamido)-2-azaspiro[2,1′-cyclopropane]-3-cephem-4-carboxylic acid]	–	–	–	–	–	6.3×10^4 fold
COc1ccc(-c2c3ccc(=O)cc-3oc3cc(OCc4ccc(OCC5=C(C(=O)O)N6C(=O)[C@@H](NC(=O)Cc7ccccc7)[C@H]6SC5)cc4)ccc23)c(C)c1 [CDG-1]	–	–	–	fluorescent signal turn-on with all bacteria	–	–
